Assay [1] addresses T1, acetylcholinesterase (Rattus norvegicus, UniProt P37136).
T1 construct: The acetylcholinesterase used in this test was obtained from rat's corpus striatum; from tissue; host or cells: rat corpus striatum
T1 sequence (P37136 32-614): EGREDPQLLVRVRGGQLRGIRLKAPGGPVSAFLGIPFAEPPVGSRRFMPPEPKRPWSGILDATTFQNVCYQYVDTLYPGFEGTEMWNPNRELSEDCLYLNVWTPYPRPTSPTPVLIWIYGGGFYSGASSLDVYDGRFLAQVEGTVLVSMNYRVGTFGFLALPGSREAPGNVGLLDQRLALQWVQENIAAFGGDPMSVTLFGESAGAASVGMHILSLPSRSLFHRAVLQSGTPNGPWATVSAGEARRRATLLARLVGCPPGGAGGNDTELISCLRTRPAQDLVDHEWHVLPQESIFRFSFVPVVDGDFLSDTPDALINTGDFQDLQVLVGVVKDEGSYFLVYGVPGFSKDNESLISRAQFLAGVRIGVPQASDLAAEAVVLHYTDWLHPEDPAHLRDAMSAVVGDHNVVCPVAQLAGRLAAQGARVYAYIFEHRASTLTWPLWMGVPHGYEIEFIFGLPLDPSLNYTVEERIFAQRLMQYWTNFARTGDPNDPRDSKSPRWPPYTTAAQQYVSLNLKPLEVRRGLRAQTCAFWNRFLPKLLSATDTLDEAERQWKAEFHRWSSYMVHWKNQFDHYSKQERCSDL
The assay is described as follows: Inhibition of acetylcholinesterase (enzyme assay). In kind it is biochemical. The method, then: The ability to inhibit acetylcholinesterase was determined by the method (enzyme assay) described in Clinica Chimica Acta, 115 (1981) 163-170. The acetylcholinesterase used in this test was obtained from rat's corpus striatum.

The test system of assay [2] is deficit of memory induced by cycloheximide. The assay is described as follows: Passive avoidance test. The format is in vivo. The note with it: Dose 0.032 mg/kg i.p.; ddY strain male mice given cycloheximide 30 mg/kg S.C.; step-down latency 24 hours after training. An excerpt:
6-Weeks old ddY strain male mice (20 per group) were used. The effect of the test compound on deficit of memory induced by cycloheximide (a protein synthesis inhibitor) in passive avoidance task was examined.
The apparatus consists of a grid floor enclosed by a transparent acryl glass wall each section of which was 30 cm². At the center of this grid a wooden platform of 4 x 4 x 4 cm was fixed. This apparatus was set in a wooden semisoundproof box of 35 x 35 x 90 cm fitted with a 15W tungsten lamp.
Each mouse in groups (A), (B) and (C) was placed on the platform.
When the mouse stepped down from the platform and placed all its paws on the grid floor, an intermittent electrical footshock (1Hz, 0.5 sec, 60V, DC) was delivered for 15 seconds through the grid floor. […]
24 Hours after the training, each mouse was placed again on the platform and the response latency to step down from the platform was measured to an extent of 300 seconds at the longest.
Results were recorded as the mean response latency of step down for each experimental group of mice. […]

For the molecule `Cc1ccc2c(N)c3c(nc2c1)CC(C)(C)CC3O` (racemic) [(±)-9-Amino-1-hydroxy-3,3,6-trimethyl-1,2,3,4-tetrahydroacridine], the 50% inhibitory concentration (IC50) in assay [1] is 870 nM. This counts as sub-micromolar. Turning to `CC1(C)CCc2c(nc3cc(Cl)ccc3c2N)C1` [9-Amino-6-chloro-3,3-dimethyl-1,2,3,4-tetrahydroacridine], the “Percentage of Recovery (%)” value in assay [2] stood at 95%.

The IC50 is the concentration at which inhibition is half-maximal. Low values mean greater potency, high ones weaker potency.

Values taken from EP0371388A2, “Acridine derivatives” (FUJISAWA PHARMACEUTICAL CO., LTD., priority 1988, dated 1990).
